Results published in US10793559B2, “Chemical compounds” (GlaxoSmithKline Intellectual Property Development Limited, priority 2016, dated 2020).
Structures can show the parent of a compound that is named as a salt.

Experiments:
[1] = system: amphetamine-induced psychosis; conditions: Law et al. 2012; cited from earlier work
[2] = biological target: PI3K-Delta (Homo sapiens, UniProt O00329); test: PI3K HTRF assay (PI3K Delta); format: biochemical; conditions: PI3K-Delta 1.5 nM, 80 μM ATP, 10 μM PIP2 final, read-out: mean pIC50 in the PI3K Delta assay (converted)
Procedure: Biological Data PI3K HTRF Assay
The binding of compounds to PI3K-alpha/beta/delta/gamma is determined by homogeneous time resolved fluorescence (HTRF) assays as follows;
Briefly, solid compound is dissolved in 100% DMSO at a concentration of 2 mM. Dilutions are prepared in 100% DMSO using a 1 in 4 serial step dilution. The dilutions are transferred to black low volume Greiner assay plates ensuring that the DMSO concentration is constant across the plate at 1% (0.1 ul/well).
PI3K Reaction Buffer (contains 50 mM HEPES pH7.0 (NaOH), 150 mM NaCl, 10 mM MgCl2, 2.3 mM sodium cholate, 10 μM CHAPS made up in milliQ water). Fresh DTT is added at a final concentration of 1 mM on the day of use. Wortmannin at a concentration sufficient to produce 100% inhibition (8.33e-6 M) is added to column 18 of compound plates.
Enzyme solutions: 1× PI3K assay Buffer containing: • 550 pM PI3K-Alpha enzyme (275 pM final assay concentration) • 800 pM PI3K-Beta enzyme (400 pM final assay concentration) • 3 nM PI3K-Delta enzyme (1.5 nM final assay concentration) • 10 nM PI3K-Gamma enzyme (5 nM final assay concentration)
These concentrations are optimal to achieve a signal:background of between 1.5-4.5. The enzyme solution is added to columns 1-24 (3 ul/well) and plates are incubated for 15 minutes at room temperature.
Substrate solution: 1× PI3K assay buffer containing: • PI3K-Alpha: 500 μM ATP, 20 μM PIP2 and 120 nM biotin-PIP3. (Final assay concentrations are 250 μM ATP, 10 μM PIP2 (both at Km) and 40 nM biotin-PIP3) • PI3K-Beta: 800 μM ATP, 20 μM PIP2 and 120 nM biotin-PIP3. (Final assay concentrations are 400 μM ATP, 10 μM PIP2 (both at Km) and 40 nM biotin-PIP3) • PI3K-Delta: […], 20 μM PIP2 and 120 nM biotin-PIP3. (Final assay concentrations are 80 μM ATP, 10 μM PIP2 (both at Km) and 40 nM biotin-PIP3) • PI3K-Gamma: 30 μM ATP, 20 μM PIP2 and 120 nM biotin-PIP3.
This is added to all wells and plates are incubated for 1 hour at room temperature.
Detection solution: PI3K Detection Buffer (contains 50 mM HEPES pH7.0 (HCl), 150 mM NaCl, 2.3 mM sodium cholate, 10 μM CHAPS, 240 mM potassium fluoride) containing 2 mM DTT (2× final concentration), 90 nM GRP-1 PH domain, 300 nM Streptavidin-APC and 24 nM Europium-anti-GST (6× final concentrations)
This is mixed left at room temperature (protected from light).
STOP solution: PI3K STOP Buffer (contains 50 mM HEPES pH7.0 (HCl), 150 mM NaCl, 2.3 mM sodium cholate, 10 μM CHAPS, 150 mM EDTA).
Detection solution is diluted 1:1 with STOP solution and added to all wells (3 ul/well). Plates are covered and incubated on the bench for 45-60 minutes. Plates are read on a PerkinElmer Envision, measuring TR-FRET between the complex formed between the GST-tagged PH domain and biotinylated PIP3 which both recruit fluorophores (Europium-labelled anti-GST & Strep-APC respectively). […], this complex is disrupted by the competitive action of non-biotinylated PIP3 (formed in the assay by the phosphorylation of PIP2 by the kinase & ATP). From this, the ratio of acceptor/donor was calculated (Aex=317 nm, Aem donor=615 nm, em acceptor=665 nm) and used for data analysis.

Chain of PI3K-Delta (O00329 whole entry): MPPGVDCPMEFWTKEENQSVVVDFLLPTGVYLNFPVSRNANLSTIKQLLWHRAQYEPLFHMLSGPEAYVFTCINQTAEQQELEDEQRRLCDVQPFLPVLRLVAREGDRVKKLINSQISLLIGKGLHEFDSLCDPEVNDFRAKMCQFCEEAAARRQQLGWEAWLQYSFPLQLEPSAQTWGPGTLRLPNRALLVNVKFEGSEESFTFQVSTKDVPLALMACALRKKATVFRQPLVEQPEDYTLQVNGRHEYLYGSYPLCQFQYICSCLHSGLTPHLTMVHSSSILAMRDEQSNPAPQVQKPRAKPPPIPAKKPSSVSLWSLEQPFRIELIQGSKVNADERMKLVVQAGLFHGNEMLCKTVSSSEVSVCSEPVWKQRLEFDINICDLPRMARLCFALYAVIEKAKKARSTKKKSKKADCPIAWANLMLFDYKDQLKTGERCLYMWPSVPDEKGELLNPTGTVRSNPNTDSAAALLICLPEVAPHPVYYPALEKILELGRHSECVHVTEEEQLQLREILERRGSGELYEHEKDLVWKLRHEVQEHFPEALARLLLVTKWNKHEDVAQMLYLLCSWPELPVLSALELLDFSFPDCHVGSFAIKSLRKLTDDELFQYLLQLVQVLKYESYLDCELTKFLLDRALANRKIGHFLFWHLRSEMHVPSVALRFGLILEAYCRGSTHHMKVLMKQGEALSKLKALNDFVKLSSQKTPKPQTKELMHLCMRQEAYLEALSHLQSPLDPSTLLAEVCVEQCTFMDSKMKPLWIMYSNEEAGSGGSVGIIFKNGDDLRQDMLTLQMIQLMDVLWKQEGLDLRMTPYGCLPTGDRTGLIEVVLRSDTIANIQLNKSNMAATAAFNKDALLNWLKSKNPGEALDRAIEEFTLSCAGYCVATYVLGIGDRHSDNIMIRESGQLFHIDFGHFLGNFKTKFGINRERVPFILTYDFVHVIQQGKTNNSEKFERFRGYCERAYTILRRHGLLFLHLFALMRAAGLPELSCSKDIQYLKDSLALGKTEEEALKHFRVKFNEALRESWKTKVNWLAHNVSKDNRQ
Chain of PI3K-Delta (P27986 whole entry partner): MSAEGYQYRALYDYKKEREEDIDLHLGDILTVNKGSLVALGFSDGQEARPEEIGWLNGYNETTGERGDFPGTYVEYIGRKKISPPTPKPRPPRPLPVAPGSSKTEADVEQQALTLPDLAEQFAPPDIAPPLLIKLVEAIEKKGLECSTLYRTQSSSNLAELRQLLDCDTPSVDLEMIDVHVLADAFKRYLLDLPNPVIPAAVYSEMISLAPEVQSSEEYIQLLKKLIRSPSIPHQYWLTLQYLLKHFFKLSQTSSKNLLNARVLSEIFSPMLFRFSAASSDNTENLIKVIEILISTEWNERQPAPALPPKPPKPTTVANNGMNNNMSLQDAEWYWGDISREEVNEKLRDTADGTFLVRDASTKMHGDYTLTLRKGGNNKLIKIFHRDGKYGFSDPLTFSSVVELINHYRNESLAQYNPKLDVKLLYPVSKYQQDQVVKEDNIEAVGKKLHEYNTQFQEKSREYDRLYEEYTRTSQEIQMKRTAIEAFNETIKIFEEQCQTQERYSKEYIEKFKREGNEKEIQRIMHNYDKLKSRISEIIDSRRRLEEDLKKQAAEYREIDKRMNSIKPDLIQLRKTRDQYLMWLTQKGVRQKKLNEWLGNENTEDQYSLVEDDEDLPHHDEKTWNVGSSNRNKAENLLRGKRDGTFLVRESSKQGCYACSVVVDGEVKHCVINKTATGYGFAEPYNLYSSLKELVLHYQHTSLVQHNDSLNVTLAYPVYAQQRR

Cc1ccccc1-n1c(Cn2cnc3c(N)ncnc32)nc2cccc(C)c2c1=O [IC87114]
efficacy in a mouse model of amphetamine-induced psychosis [1]: remarkable efficacy

COc1ncc(N2CCOCC2)cc1S(=O)(=O)Nc1ccnc(-c2ccc(CN3CCNCC3)cc2F)c1 [Example 25, N-(2-(2-Fluoro-4-(piperazin-1-ylmethyl)phenyl)pyridin-4-yl)-2-methoxy-5-morpholinopyridine-3-sulfonamide]
IC50 [2]: ≤ 3.16 nM

COc1ncc(N2CCOCC2)cc1S(=O)(=O)Nc1ccnc(-c2ccc(CN3CCN(C4CCC4)CC3)cc2F)c1 [Example 16, N-(2-(4-((4-Cyclobutylpiperazin-1-yl)methyl)-2-fluorophenyppyridin-4-yl)-2-methoxy-5-morpholinopyridine-3-sulfonamide, 2.5 formic acid salt]
IC50 [2]: ≤ 3.16 nM
